The values below come from patent US7951824B2, “4-aryl-pyridine-2-carboxyamide derivatives” (Hoffman-La Roche Inc., priority 2006, dated 2011).

In general, Ki refers to a dissociation constant, usually derived from enzyme kinetics or from competition with a known ligand.

Structures are written as SMILES.

The target of this experiment is T1, human mGlu 5a receptor (Homo sapiens, UniProt P41594).
T1 construct: expressed in transfected cells; host or cells: EBNA cells (transient transfection), membrane homogenates
T1 sequence (P41594 21-1180 isoform P41594-2 limits assumed): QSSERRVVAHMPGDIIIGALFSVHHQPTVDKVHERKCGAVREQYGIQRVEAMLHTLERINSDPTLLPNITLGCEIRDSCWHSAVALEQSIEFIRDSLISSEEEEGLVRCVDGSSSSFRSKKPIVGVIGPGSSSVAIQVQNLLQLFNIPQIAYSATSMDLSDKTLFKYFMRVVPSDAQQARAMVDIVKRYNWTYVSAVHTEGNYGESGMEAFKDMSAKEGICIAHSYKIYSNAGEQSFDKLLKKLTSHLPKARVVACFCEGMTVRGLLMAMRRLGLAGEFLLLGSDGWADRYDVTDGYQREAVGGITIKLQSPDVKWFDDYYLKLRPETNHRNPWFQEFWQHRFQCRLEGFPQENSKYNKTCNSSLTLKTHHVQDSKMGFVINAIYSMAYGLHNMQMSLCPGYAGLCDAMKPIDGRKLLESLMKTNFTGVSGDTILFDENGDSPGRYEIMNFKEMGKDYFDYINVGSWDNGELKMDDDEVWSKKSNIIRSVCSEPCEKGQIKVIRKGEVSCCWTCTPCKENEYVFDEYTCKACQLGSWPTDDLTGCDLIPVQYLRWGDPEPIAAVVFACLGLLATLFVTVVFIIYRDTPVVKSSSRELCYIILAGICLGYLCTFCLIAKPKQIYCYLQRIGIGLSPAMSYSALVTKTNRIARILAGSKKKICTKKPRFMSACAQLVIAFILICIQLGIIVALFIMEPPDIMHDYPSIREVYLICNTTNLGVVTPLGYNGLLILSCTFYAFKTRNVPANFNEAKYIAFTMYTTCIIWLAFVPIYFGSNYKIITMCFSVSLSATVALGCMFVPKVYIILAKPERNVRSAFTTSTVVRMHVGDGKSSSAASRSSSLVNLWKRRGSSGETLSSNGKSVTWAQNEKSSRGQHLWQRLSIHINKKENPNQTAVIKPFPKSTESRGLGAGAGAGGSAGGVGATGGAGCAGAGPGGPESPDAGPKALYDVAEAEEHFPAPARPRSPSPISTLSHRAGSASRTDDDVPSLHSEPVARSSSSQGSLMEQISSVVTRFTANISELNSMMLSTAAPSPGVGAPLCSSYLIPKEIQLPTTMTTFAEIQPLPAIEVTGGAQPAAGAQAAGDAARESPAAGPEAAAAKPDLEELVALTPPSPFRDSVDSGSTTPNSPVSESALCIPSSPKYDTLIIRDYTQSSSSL
As to the kind of experiment: [3H]MPEP competition binding on membranes of EBNA cells transfected with human mGlu 5a receptor. As to conditions: competition with [3H]MPEP (2 nM), 1 h at 4° C., EBNA cell membranes. Here is the method:
The pharmacological activity of the compounds was tested using the following method: For binding experiments, cDNA encoding human mGlu 5a receptor was transiently transfected into EBNA cells using a procedure described by Schlaeger and Christensen [Cytotechnology 15:1-13 (1998)]. Cell membrane homogenates were stored at −80° C. until the day of assay where upon they were thawed and resuspended and polytronised in 15 mM Tris-HCl, 120 mM NaCl, 100 mM KCl, 25 mM CaCl2, 25 mM MgCl2 binding buffer at pH 7.4 to a final assay concentration of 20 μg protein/well.
Saturation isotherms were determined by addition of twelve [^3H] MPEP concentrations (0.04-100 nM) to these membranes (in a total volume of 200 μd) for 1 h at 4° C. Competition experiments were performed with a fixed concentration of [^3H]MPEP (2 nM) and IC50 values of test compounds evaluated using 11 concentrations (0.3-10,000 nM). Incubations were performed for 1 h at 4° C.
At the end of the incubation, membranes were filtered onto unifilter (96-well white microplate with bonded GF/C filter preincubated 1 h in 0.1% PEI in wash buffer, Packard Bio-Science, Meriden, Conn.) with a Filtermate 96 harvester (Packard BioScience) and washed 3 times with cold 50 mM Tris-HCl, pH 7.4 buffer. Nonspecific binding was measured in the presence of 10 μM MPEP. The radioactivity on the filter was counted (3 min) on a Packard Top-count microplate scintillation counter with quenching correction after addition of 45 μl of microscint 40 (Canberra Packard S. A., Zürich, Switzerland) and shaking for 20 min.
For binding experiments the Ki values of the compounds tested are given. The Ki value is defined by the following formula: KiIC50/[1+L/Kd] in which the IC50 values are those concentrations of the compounds tested which cause 50% inhibition of the competing radioligand ([^3H]MPEP). L is the concentration of radioligand used in the binding experiment and the Kd value of the radioligand is empirically determined for each batch of membranes prepared.

As for `Cc1cc(NC(=O)c2cc(-c3ccc(F)cc3)cc(C)n2)ccn1` [Example 28, 4-(4-Fluoro-phenyl)-6-methyl-pyridine-2-carboxylic acid (2-methyl-pyridin-4-yl)-amide], the Ki turned out to be 0.411 µM.

`Cc1cc(-c2ccc(F)cc2)cc(C(=O)Nc2cccc(Cl)c2)n1` [Example 26, 4-(4-Fluoro-phenyl)-6-methyl-pyridine-2-carboxylic acid (3-chloro-phenyl)-amide]: the Ki was found to be 0.287 µM.

Turning to `Cc1csc(NC(=O)c2cc(-c3cc(F)cc(F)c3)nc(C)n2)n1` [Example 33, 6-(3,5-Difluoro-phenyl)-2-methyl-pyrimidine-4-carboxylic acid (4-methyl-thiazol-2-yl)-amide], the inhibition constant Ki turned out to be 0.014 µM.

As to `Cc1cc(-c2cc(F)cc(F)c2)cc(C(=O)Nc2ccnc(C)n2)n1` [Example 64, 4-(3,5-Difluorophenyl)-6-methyl-pyridine-2-carboxylic acid (2-methyl-pyrimidin-4-yl)-amide], the Ki was determined as 0.008 µM.

`Cc1cc(-c2cc(C)nc(C(=O)Nc3nc(C#N)cs3)c2)ccn1` [Example 185, 6,2′-Dimethyl-[4,4′]bipyridinyl-2-carboxylic acid (4-cyano-thiazol-2-yl)-amide]: the inhibition constant Ki amounted to 0.29 µM.

In the case of `Cc1cc(-c2cc(F)ccc2F)cc(C(=O)Nc2nc(C)cs2)n1` [Example 5, 4-(2,5-Difluoro-phenyl)-6-methyl-pyridine-2-carboxylic acid (4-methyl-thiazol-2-yl)-amide], the Ki (head prints no unit) was determined as 0.029 µM.

As for `Cc1cc(-c2cccnc2)cc(C(=O)Nc2cccc(C#N)c2)n1` [Example 95, 6′-Methyl-[3,4′]bipyridinyl-2′-carboxylic acid (3-cyanophenyl)-amide], the Ki was 0.411 µM.

Take `COc1cncc(-c2cc(C)nc(C(=O)Nc3csc(C)n3)c2)c1` [Example 56, 5-Methoxy-6′-methyl-[3,4′]bipyridinyl-2′-carboxylic acid (2-methyl-thiazol-4-yl)-amide]: the Ki is 0.029 µM.

On to `Cc1cc(-c2cncc(F)c2)cc(C(=O)Nc2cccc(Cl)c2)n1` [Example 177, 5-Fluoro-6′-methyl-[3,4′]bipyridinyl-2′-carboxylic acid (3-chloro-phenyl)-amide], for which the Ki is 0.111 µM.

For the molecule `Cc1cc(-c2cc(F)cc(F)c2)nc(C(=O)Nc2ccn(C)n2)n1` [Example 198, 4-(3,5-Difluoro-phenyl)-6-methyl-pyrimidine-2-carboxylic acid (1-methyl-1H-pyrazol-3-yl)-amide], the inhibition constant Ki amounted to 0.181 µM.

For the molecule `Cc1cc(-c2cc(F)cc(F)c2)cc(C(=O)Nc2nc(C)c(F)s2)n1` [Example 199, 4-(3,5-Difluoro-phenyl)-6-methyl-pyridine-2-carboxylic acid (5-fluoro-4-methyl-thiazol-2-yl)-amide], the Ki is 0.014 µM.

On to `Cc1cc(-c2ccc(F)cc2)cc(C(=O)Nc2ccc(F)cn2)n1` [Example 30, 4-(4-Fluoro-phenyl)-6-methyl-pyridine-2-carboxylic acid (5-fluoro-pyridin-2-yl)-amide], for which the Ki stood at 0.28 µM.

In the case of `Cc1nc(C(=O)Nc2ccnc(Cl)c2)cc(-c2cc(F)cc(F)c2)n1` [Example 36, 6-(3,5-Difluoro-phenyl)-2-methyl-pyrimidine-4-carboxylic acid (2-chloro-pyridin-4-yl)-amide], the Ki was 0.113 µM.

For `Cc1cc(-c2ccc(F)cc2)cc(C(=O)Nc2ccnc(Cl)c2)n1` [Example 31, 4-(4-Fluoro-phenyl)-6-methyl-pyridine-2-carboxylic acid (2-chloro-pyridin-4-yl)-amide], the Ki was 0.62 µM.

In the case of `Cc1cc(-c2cc(F)cc(F)c2)cc(C(=O)Nc2nc(C)cs2)n1` [Example 2, 4-(3,5-Difluoro-phenyl)-6-methyl-pyridine-2-carboxylic acid (4-methyl-thiazol-2-yl)-amide], the Ki (head prints no unit) was determined as 0.007 µM.

`Cc1cc(NC(=O)c2cc(-c3ccnc(C#N)c3)cc(C)n2)ccn1` [Example 142, 2′-Cyano-6-methyl-[4,4′]bipyridinyl-2-carboxylic acid (2-methyl-pyridin-4-yl)-amide]: the Ki was 0.182 µM.

For `Cc1cc(-c2cc(F)cc(F)c2)cc(C(=O)Nc2ccnc(C#N)c2)n1` [Example 169, 4-(3,5-Difluorophenyl)-6-methyl-pyridine-2-carboxylic acid (2-cyano-pyridin-4-yl)-amide], the Ki was 0.03 µM.

With `Cc1cc(-c2cc(Cl)cc(Cl)c2)cc(C(=O)Nc2csc(C)n2)n1` [Example 20, 4-(3,5-Dichloro-phenyl)-6-methyl-pyridine-2-carboxylic acid (2-methyl-thiazol-4-yl)-amide], the Ki (head prints no unit) was 0.006 µM.

On to `Cc1cc(-c2cc(F)c(F)c(F)c2)cc(C(=O)Nc2nc(C)cs2)n1` [Example 11, 6-Methyl-4-(3,4,5-trifluoro-phenyl)-pyridine-2-carboxylic acid (4-methyl-thiazol-2-yl)-amide], for which the Ki (head prints no unit) came out at 0.01 µM.

Turning to `Cc1cc(-c2cncc(F)c2)cc(C(=O)Nc2nc(C)cs2)n1` [Example 19, 5-Fluoro-6′-methyl-[3,4′]bipyridinyl-2′-carboxylic acid (4-methyl-thiazol-2-yl)-amide], the Ki (head prints no unit) came out at 0.025 µM.

As to `Cc1cc(-c2cc(F)cc(F)c2)cc(C(=O)Nc2nc(CC#N)cs2)n1` [Example 163, 4-(3,5-Difluorophenyl)-6-methyl-pyridine-2-carboxylic acid (4-cyanomethyl-thiazol-2-yl)-amide], the Ki was found to be 0.02 µM.

Take `Cc1cc(-c2cncc(F)c2)cc(C(=O)Nc2ccc(Cl)cn2)n1` [Example 173, 5-Fluoro-6′-methyl-[3,4′]bipyridinyl-2′-carboxylic acid (5-chloro-pyridin-2-yl)-amide]: the Ki was 0.033 µM.

Regarding `Cc1cc(-c2ccc(F)cc2)cc(C(=O)Nc2ccnc(C)n2)n1` [Example 32, 4-(4-Fluoro-phenyl)-6-methyl-pyridine-2-carboxylic acid (2-methyl-pyrimidin-4-yl)-amide], the Ki is 0.501 µM.

Regarding `COc1ccc(-c2cc(C)nc(C(=O)Nc3nc(C)cs3)c2)cc1` [Example 9, 4-(4-Methoxy-phenyl)-6-methyl-pyridine-2-carboxylic acid (4-methyl-thiazol-2-yl)-amide], the Ki (head prints no unit) was 1.2 µM.

Turning to `Cc1cc(-c2cc(F)cc(F)c2)cc(C(=O)Nc2nccc(Cl)n2)n1` [Example 167, 4-(3,5-Difluorophenyl)-6-methyl-pyridine-2-carboxylic acid (4-chloro-pyrimidin-2-yl)-amide], the Ki was 0.079 µM.

Regarding `Cc1cc(-c2cncnc2)cc(C(=O)Nc2nc(C)cs2)n1` [Example 18, 6-Methyl-4-pyrimidin-5-yl-pyridine-2-carboxylic acid (4-methyl-thiazol-2-yl)-amide], the Ki (head prints no unit) was found to be 0.124 µM.

As to `Cc1cc(-c2cncc(C(F)(F)F)c2)cc(C(=O)Nc2nc(C)cs2)n1` [Example 131, 6′-Methyl-5-trifluoromethyl-[3,4′]bipyridinyl-2′-carboxylic acid (4-methyl-thiazol-2-yl)-amide], the Ki turned out to be 0.196 µM.

For the molecule `Cc1cc(-c2cncc(F)c2)cc(C(=O)Nc2nc(C(F)F)cs2)n1` [Example 174, 5-Fluoro-6′-methyl-[3,4′]bipyridinyl-2′-carboxylic acid (4-difluoromethyl-thiazol-2-yl)-amide], the Ki was found to be 0.039 µM.

For `Cc1cc(-c2ccc(C#N)cc2)cc(C(=O)Nc2nc(C)cs2)n1` [Example 12, 4-(4-Cyano-phenyl)-6-methyl-pyridine-2-carboxylic acid (4-methyl-thiazol-2-yl)-amide], where the note is “head prints no unit”, the Ki came out at 0.253 µM.

Turning to `Cc1cc(-c2ccc(F)cc2)c(C)c(C(=O)Nc2ccn(C)n2)n1` [Example 118, 4-(4-Fluoro-phenyl)-3,6-dimethyl-pyridine-2-carboxylic acid (1-methyl-1H-pyrazol-3-yl)-amide], the inhibition constant Ki turned out to be 0.714 µM.

Consider `Cc1cc(-c2cc(F)cc(F)c2)nc(C(=O)Nc2nc(C)cs2)n1` [Example 192, 4-(3,5-Difluoro-phenyl)-6-methyl-pyrimidine-2-carboxylic acid (4-methyl-thiazol-2-yl)-amide], for which the Ki turned out to be 0.11 µM.

With `Cc1cc(-c2cc(F)cc(F)c2)cc(C(=O)Nc2ncc(C)s2)n1` [Example 86, 4-(3,5-Difluorophenyl)-6-methyl-pyridine-2-carboxylic acid (5-methyl-thiazol-2-yl)-amide], the Ki is 0.929 µM.

For the molecule `Cc1cc(-c2cncc(F)c2)cc(C(=O)Nc2ccnc(Cl)c2)n1` [Example 67, 5-Fluoro-6′-methyl-[3,4′]bipyridinyl-2′-carboxylic acid (2-chloro-pyridin-4-yl)-amide], the Ki is 0.037 µM.

As for `Cc1cc(-c2cc(F)cc(F)c2)cc(C(=O)Nc2ncc(F)s2)n1` [Example 200, 4-(3,5-Difluoro-phenyl)-6-methyl-pyridine-2-carboxylic acid (5-fluoro-thiazol-2-yl)-amide], the Ki came out at 0.081 µM.
